From US5232928A, “Tetrahydroisoquinoline amides” (Boehringer Ingelheim Pharmaceuticals, Inc., priority 1991, dated 1993)
Like-named read-outs stand apart in the source and are kept apart here. One block for each molecule: values may come before it. Where a SMILES comes first, the peptide text is derived from it. [ ]: non-standard residue; d: D form. The star is where a group is joined. ξ: configuration not given here. ξTic = O=C(O)C1Cc2ccccc2CN1; Cbz = O=C(OCc1ccccc1)*; ξV = CC(C)C(N)C(=O)O; CF3 = FC(F)(F)*

Key:
Assay type in all cases: biochemical
Human Leukocyte Elastase = molecular target: T1, Human Leukocyte Elastase (Homo sapiens, UniProt P08246); experiment: Elastase inhibition in vitro, MeO-Suc-Ala-Ala-Pro-Val-pNA hydrolysis (human sputum elastase)
T1 construct: purchased Elasten Products Co., Pacific, Mo; host or cells: human sputum
T1 sequence (P08246 30-247 limits assumed): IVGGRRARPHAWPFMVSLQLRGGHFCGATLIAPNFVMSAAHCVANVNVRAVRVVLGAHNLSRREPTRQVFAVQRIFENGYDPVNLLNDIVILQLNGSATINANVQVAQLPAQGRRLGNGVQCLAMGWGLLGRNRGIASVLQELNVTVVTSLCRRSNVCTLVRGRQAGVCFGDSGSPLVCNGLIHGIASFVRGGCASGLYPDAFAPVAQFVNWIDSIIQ
Text: The method of K. Nakajima et al., Journal of Biological Chemistry, 254: 4027-4032 was adapted to a microtiter format. The in vitro assay is based upon the hydrolysis of the commercially available (Sigma Chemical Company, St. Louis, Mo.) substrate methoxy O-succinyl-L-alanyl-L-alanyl-L-prolyl-L-valine para - nitroanilide (MeO-Suc-Ala-Ala-Pro-Val-pNA) and the release of para-nitroanilide (pNA), which absorbs at 405 nm.
b. Vmax Kinetic Microtiter Plate Reader, equipped with 405 nm filter (Molecular Devices)
a. Human sputum elastase (HSE) (Elasten Products Co., Pacific, Mo.) dissolved 1 mg/mL in 0.05M sodium chloride and frozen (50 μL aliquots) at -20° C. until used.
b. Stock solution of MeO-Suc-Ala-Ala-Pro-Val-pNA dissolved at 15 mM in dimethylsulfoxide (DMSO) and frozen (4 mL aliquots) at -20° C. until used.
c. Assay buffer: 0.1M tris buffer, pH 7.5 containing 0.5M sodium choloride.
Screening is performed in microtiter plates, using 0.5 mM substrate and monitored on a Microtiter Reader. Enzyme activity (+/- test compound) is determined as the rate of pNA release (linear regression analysis of slope). Inhibitory activity of the test compound is calculated relative to the uninhibited enzyme control, as follows: [formula]
A frozen aliquot of HSE is thawed and diluted with assay buffer to a stock concentration of 0.02 mg/mL (30×assay concentration). […]

Urokinase = Urokinase (Homo sapiens, UniProt P00749); experiment: Selectivity assay: urokinase; conditions: selectivity table
Human C1 Esterase = molecular target: T2, Human C1 Esterase (Homo sapiens, UniProt P09871); experiment: Selectivity assay: human C1 esterase; conditions: selectivity table
T2 sequence (P09871 438-688 limits assumed): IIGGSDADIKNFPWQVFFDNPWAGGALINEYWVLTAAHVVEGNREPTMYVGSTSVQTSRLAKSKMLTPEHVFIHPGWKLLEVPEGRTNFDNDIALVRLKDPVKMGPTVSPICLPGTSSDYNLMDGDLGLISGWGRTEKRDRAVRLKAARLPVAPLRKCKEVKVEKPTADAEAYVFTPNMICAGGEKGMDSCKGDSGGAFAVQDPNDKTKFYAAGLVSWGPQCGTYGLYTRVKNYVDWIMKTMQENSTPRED
T2 sequence (P09871 16-437 partner limits assumed): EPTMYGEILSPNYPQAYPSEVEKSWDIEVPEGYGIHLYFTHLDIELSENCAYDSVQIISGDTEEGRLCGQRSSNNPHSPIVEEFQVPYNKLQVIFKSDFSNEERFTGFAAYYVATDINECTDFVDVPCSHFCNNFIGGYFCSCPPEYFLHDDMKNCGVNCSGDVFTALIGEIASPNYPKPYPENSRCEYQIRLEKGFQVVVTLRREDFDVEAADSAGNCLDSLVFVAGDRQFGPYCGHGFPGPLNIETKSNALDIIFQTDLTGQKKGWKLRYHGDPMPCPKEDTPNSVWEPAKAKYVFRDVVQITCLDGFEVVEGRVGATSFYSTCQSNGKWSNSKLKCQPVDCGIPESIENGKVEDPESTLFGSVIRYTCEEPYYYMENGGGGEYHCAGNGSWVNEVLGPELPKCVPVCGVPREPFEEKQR

Chymotrypsin = Chymotrypsin (Bos taurus, UniProt P00766); experiment: Selectivity assay: chymotrypsin; conditions: selectivity table
Recombitant HIV Protease = molecular target: T3, Recombitant HIV Protease (Human immunodeficiency virus type 1 group M subtype B, UniProt P04585); experiment: Selectivity assay: recombinant HIV protease; conditions: selectivity table
T3 construct: Recombitant HIV Protease

[1] = molecular target: Recombitant 3C - Proteinase; experiment: Selectivity assay: recombinant 3C-proteinase; conditions: selectivity table
Cathepsin B = Cathepsin B (Homo sapiens, UniProt P07858); experiment: Selectivity assay: cathepsin B; conditions: selectivity table
Plasmin = Plasmin (Homo sapiens, UniProt P00747); experiment: Selectivity assay: plasmin; conditions: selectivity table
Sequence of Plasmin (P00747 581-810 limits assumed, species assumed): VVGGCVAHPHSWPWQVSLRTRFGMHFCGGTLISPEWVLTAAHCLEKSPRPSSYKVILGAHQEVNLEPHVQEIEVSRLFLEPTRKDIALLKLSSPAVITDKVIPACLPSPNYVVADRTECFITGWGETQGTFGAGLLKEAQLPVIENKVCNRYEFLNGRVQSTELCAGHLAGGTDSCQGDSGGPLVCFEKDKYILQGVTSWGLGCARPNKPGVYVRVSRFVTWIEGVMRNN
Sequence of Plasmin (P00747 97-580 partner limits assumed, species assumed): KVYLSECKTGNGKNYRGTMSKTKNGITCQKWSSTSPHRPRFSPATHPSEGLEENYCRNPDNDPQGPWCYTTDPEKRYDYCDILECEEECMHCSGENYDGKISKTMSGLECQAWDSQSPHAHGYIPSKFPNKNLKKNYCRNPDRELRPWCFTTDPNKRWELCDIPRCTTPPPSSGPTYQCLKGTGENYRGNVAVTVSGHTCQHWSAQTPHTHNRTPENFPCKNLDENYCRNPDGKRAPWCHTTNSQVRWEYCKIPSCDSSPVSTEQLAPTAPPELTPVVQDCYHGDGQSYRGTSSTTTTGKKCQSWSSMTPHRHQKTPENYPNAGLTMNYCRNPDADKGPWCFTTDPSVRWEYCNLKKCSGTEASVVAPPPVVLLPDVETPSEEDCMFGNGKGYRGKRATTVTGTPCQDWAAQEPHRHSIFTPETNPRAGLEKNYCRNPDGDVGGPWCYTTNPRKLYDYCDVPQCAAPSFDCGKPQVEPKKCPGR

Thrombin = Thrombin (Homo sapiens, UniProt P00734); experiment: Selectivity assay: thrombin; conditions: selectivity table

IC50 (Human Leukocyte Elastase; Table I, in vitro inhibition, 0.5 mM substrate, pH 7.5, read-out: In Vitro IC50): < 17.8 µM
Compound: CC(C)C(NC(=O)C1Cc2ccccc2CN1C(=O)[C@@H](NC(=O)OCc1ccccc1)C(C)C)C(=O)C(F)(F)F (stereo partly drawn) [CBZ] (Cbz-Val-[ξTic]-[ξV]-CF3)

Compound: CC(C)C(NC(=O)C1Cc2ccccc2CN1C(=O)[C@@H](NC(=O)c1ccc(C(=O)NS(=O)(=O)c2ccc(Cl)cc2)cc1)C(C)C)C(=O)C(F)(F)F (stereo partly drawn) [p-[p-Cl(C6 H4)SO2 NHCO](C6 H4)CO, [[4-(4-Chlorophenyl)sulfonylaminocarbonyl]phenyl-1-oxomethyl]-L-valyl-N-[3-(1,1,1-trifluoro-4-methyl-2-oxopentyl)]-1,2,3,4-tetrahydro-3-isoquinoline-carboxamide]
IC50 (Urokinase): > 8.01 µM
IC50 (Human C1 Esterase): > 8.01 µM
IC50 (Chymotrypsin): > 8.01 µM
IC50 (Recombitant HIV Protease): > 66.7 µM
IC50 [1]: > 50 mg/L
IC50 (Cathepsin B): > 8.01 µM
IC50 (Human Leukocyte Elastase; selectivity table, Human Leukocyte Elastase): 0.082 mg/L
IC50 (Plasmin): > 8.01 µM
IC50 (Thrombin): > 8.01 µM
